From patent US10871487B2, “FRET-based glucose-detection molecules” (priority 2016, dated 2020)

Tests used:
[1] = target: T1, FRET-based glucose-detection molecule D267, glucose-binding region derived from E. coli mg1B (galactose binding protein), 16 = N (Escherichia coli, UniProt P0AEE5, F39N); assay: Kd of residue 16 variant at room temperature (D267)
T1 construct: made in E. coli, purified
Text: (§1) Reference is also made to FIG. 2, which is a graph that illustrates, in a generalized manner, FRET behavior of molecule 20 (and of the molecules that it represents), in accordance with some applications of the invention. Three important features of molecules suitable for FRET-based glucose detection are: • (1) High contrast. That is, a large difference between the FRET:F ratio in the disassociated state and the FRET:F ratio in the associated state (referred to herein as “delta ratio” (“dR”)). In FIG. 2, this is represented as the difference between the highest FRET:F ratio and the lowest FRET:F ratio on the curve. • (2) High sensitivity at physiologically-relevant glucose concentrations when at physiologically-relevant temperatures. […]
(§2) The measurements were performed on proteins that were extracted from E. coli (in which they were produced) and purified in 50 mM Tris (pH 7.6, 1 mM CaCl_2, 100 mM NaCl_2). Measurements were performed using an Infinite (R) 200 plate reader or on a fluoroscopic microscope. FRET-based emission was measured by applying excitation at 475 nm and detecting emission at 640-800 nm. Direct fluorescence of the acceptor fluorophore was measured by applying excitation at 575 nm and detecting emission at 640-800 nm. Curves were generated from the measured points (typically 10) by a non-linear interpolation, and Kd and dR were extracted. […]

[2] = target: T2, FRET-based glucose-detection molecule D241, glucose-binding region derived from E. coli mg1B (galactose binding protein), 16 = Q (Escherichia coli, UniProt P0AEE5, F39Q); assay: Kd of residue 16 variant at room temperature (D241)
T2 construct: made in E. coli, purified
Text: as §1, §2

[3] = target: T3, FRET-based glucose-detection molecule D279, SEQ ID No. 4, glucose-binding region derived from E. coli mg1B (galactose binding protein), residue 16 = Q (Escherichia coli, UniProt P0AEE5, DELINS299-299[…]/F39Q); assay: FRET:F ratio at different glucose concentrations, Kd extracted from curve (D279); details: FIG. 5B
T3 construct: red acceptor fluorophore at N-terminus; FRET sensor D279; made in E. coli, purified
Text: (§3) Reference is also made to FIG. 2, which is a graph that illustrates, in a generalized manner, FRET behavior of molecule 20 (and of the molecules that it represents), in accordance with some applications of the invention. Three important features of molecules suitable for FRET-based glucose detection are: • (1) High contrast. That is, a large difference between the FRET:F ratio in the disassociated state and the FRET:F ratio in the associated state (referred to herein as “delta ratio” (“dR”)). […]
(§4) Reference is now made to FIG. 4, which is a set of graphs which show, for some of the molecules described hereinabove, the FRET:F ratio (y axis) at different glucose concentrations, measured at 35 degrees C.
as §2

[4] = target: T4, FRET-based glucose-detection molecule D278, SEQ ID No. 3, glucose-binding region derived from E. coli mg1B (galactose binding protein), residue 16 = Q (Escherichia coli, UniProt P0AEE5, DELINS298-299[…]/F39Q); assay: FRET:F ratio at different glucose concentrations, Kd extracted from curve (D278); details: FIG. 5B
T4 construct: red acceptor fluorophore at N-terminus with linker; FRET sensor D278; made in E. coli, purified
Text: as §3, §4, §2

[5] = target: T5, FRET-based glucose-detection molecule D277, SEQ ID No. 2, glucose-binding region derived from E. coli mg1B (galactose binding protein), residue 16 = Q (Escherichia coli, UniProt P0AEE5, DELINS298-299[…]/F39Q); assay: FRET:F ratio at different glucose concentrations, Kd extracted from curve (D277); details: FIG. 5B
T5 construct: red acceptor fluorophore at N-terminus with linker; FRET sensor D277; made in E. coli, purified
Text: as §3, §4, §2

[6] = target: T6, FRET-based glucose-detection molecule D198, glucose-binding region derived from E. coli mg1B (galactose binding protein), 16 = A (Escherichia coli, UniProt P0AEE5, F39A); assay: Kd of residue 16 variant at room temperature (D198)
T6 construct: made in E. coli, purified
Text: as §1, §2

[7] = target: T7, FRET-based glucose-detection molecule D274, SEQ ID No. 1, glucose-binding region derived from E. coli mg1B (galactose binding protein), residue 16 = Q (Escherichia coli, UniProt P0AEE5, DELINS298-299[…]/F39Q); assay: FRET:F ratio at different glucose concentrations, Kd extracted from curve (D274); details: FIG. 5B
T7 construct: red acceptor fluorophore at N-terminus; FRET sensor D274; made in E. coli, purified
Text: as §3, §4, §2

[8] = target: T8, FRET-based glucose-detection molecule D263, glucose-binding region derived from E. coli mg1B (galactose binding protein), 16 = V (Escherichia coli, UniProt P0AEE5, F39V); assay: Kd of residue 16 variant at room temperature (D263)
T8 construct: made in E. coli, purified
Text: as §1, §2

T3 sequence (P0AEE5 other isoform, or with tags, fused parts or gaps with the stated changes): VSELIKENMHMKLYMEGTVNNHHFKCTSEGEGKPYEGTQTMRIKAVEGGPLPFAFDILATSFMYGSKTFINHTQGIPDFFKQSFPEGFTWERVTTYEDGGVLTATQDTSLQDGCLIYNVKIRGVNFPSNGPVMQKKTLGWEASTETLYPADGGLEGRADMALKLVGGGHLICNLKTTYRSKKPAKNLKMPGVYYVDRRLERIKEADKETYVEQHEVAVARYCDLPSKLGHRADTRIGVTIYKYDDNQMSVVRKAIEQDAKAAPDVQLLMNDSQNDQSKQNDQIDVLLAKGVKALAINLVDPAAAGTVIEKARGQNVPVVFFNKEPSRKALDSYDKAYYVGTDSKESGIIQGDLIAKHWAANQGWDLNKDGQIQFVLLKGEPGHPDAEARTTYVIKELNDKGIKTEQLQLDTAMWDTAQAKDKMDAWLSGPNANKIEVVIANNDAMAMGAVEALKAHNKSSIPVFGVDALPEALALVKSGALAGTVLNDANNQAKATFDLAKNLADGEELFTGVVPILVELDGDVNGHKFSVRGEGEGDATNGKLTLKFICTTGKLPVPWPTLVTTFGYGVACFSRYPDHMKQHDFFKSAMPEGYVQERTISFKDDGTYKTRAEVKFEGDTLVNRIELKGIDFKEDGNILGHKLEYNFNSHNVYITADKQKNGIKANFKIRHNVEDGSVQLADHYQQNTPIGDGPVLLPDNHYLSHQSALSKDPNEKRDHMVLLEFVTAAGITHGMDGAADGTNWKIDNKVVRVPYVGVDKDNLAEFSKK
T7 sequence (P0AEE5 other isoform, or with tags, fused parts or gaps with the stated changes): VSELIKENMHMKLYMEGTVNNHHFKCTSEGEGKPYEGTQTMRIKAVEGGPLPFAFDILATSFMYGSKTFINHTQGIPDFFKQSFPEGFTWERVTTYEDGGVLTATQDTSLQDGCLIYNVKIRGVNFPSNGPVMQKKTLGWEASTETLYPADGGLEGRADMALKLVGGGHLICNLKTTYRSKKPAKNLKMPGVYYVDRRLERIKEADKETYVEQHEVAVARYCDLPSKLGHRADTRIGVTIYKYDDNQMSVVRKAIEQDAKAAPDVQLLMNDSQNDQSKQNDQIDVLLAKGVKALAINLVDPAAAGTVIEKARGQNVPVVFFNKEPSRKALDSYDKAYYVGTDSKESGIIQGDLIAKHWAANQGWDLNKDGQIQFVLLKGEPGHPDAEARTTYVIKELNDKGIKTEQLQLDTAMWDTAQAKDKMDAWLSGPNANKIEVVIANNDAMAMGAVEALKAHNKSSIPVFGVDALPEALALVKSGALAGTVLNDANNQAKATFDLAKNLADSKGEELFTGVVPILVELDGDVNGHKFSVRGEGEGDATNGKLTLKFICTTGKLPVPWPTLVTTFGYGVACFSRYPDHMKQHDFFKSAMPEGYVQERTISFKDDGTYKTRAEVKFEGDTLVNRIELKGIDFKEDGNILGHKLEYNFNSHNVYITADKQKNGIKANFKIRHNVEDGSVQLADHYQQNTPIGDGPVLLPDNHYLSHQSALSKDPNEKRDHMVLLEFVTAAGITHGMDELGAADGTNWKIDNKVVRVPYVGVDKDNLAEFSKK
T4 sequence (P0AEE5 other isoform, or with tags, fused parts or gaps with the stated changes): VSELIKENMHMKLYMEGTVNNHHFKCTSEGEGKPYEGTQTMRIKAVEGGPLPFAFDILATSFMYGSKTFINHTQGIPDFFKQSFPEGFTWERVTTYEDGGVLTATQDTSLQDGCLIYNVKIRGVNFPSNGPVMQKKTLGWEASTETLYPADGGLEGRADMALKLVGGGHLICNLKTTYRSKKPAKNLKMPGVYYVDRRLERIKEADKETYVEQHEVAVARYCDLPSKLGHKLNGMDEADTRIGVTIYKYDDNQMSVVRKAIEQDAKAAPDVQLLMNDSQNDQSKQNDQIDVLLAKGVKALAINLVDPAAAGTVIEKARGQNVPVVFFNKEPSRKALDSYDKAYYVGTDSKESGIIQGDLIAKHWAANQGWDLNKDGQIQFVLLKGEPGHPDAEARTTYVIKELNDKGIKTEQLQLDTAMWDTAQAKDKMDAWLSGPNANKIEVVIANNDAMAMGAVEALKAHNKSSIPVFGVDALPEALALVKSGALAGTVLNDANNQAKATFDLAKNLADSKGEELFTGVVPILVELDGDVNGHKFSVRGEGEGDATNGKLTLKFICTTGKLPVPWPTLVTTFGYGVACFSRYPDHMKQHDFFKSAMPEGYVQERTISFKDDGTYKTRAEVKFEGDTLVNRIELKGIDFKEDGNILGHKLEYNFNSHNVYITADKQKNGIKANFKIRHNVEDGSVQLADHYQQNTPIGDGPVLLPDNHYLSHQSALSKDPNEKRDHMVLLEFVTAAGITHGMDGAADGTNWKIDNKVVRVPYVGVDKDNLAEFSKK
T5 sequence (P0AEE5 other isoform, or with tags, fused parts or gaps with the stated changes): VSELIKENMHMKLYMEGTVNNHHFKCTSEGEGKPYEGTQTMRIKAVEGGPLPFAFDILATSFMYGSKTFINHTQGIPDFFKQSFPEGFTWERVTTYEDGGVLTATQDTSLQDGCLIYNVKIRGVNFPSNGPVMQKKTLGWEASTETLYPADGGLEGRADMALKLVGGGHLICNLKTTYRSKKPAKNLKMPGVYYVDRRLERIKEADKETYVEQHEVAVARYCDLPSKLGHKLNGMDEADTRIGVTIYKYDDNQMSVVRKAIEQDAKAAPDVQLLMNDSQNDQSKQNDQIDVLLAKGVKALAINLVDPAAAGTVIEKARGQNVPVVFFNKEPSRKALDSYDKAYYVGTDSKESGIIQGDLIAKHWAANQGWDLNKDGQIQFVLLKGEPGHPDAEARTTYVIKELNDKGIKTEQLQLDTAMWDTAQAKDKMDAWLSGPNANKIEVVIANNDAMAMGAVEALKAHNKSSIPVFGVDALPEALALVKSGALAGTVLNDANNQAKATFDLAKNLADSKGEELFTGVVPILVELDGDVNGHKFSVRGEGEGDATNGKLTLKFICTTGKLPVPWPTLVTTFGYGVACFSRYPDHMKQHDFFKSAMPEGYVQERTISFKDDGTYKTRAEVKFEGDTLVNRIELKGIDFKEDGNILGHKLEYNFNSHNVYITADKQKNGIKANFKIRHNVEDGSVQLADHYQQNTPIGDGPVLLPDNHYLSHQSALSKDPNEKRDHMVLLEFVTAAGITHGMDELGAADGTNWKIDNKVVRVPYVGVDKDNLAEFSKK
T2 sequence (P0AEE5 24-332 F39Q limits assumed): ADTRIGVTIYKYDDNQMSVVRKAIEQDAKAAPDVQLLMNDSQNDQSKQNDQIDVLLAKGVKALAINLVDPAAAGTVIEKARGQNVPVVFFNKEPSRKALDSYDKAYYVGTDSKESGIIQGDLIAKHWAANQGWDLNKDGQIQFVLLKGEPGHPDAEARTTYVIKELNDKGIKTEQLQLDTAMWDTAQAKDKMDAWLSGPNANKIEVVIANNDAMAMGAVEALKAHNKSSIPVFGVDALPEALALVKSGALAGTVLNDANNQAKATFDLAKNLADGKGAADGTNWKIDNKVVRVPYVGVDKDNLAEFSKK
T1 sequence (P0AEE5 24-332 F39N limits assumed): as the sequence (P0AEE5 24-332 F39Q limits assumed) above, with Q16N counted along it
T6 sequence (P0AEE5 24-332 F39A limits assumed): as the sequence (P0AEE5 24-332 F39Q limits assumed) above, with Q16A counted along it
T8 sequence (P0AEE5 24-332 F39V limits assumed): as the sequence (P0AEE5 24-332 F39Q limits assumed) above, with Q16V counted along it

OC[C@H]1OC(O)[C@H](O)[C@@H](O)[C@@H]1O (some centres unmarked) [glucose]
Kd [1]: 9.4 mM
Kd [2]: 0.3 mM
Kd at different temperatures [3]: Kd increased with temperature for all four molecules; the change was greatest for D279
Kd at different temperatures [4]: Kd increased with temperature for all four molecules
Kd at different temperatures [5]: Kd increased with temperature for all four molecules
Kd [6]: 3.2 mM
Kd at different temperatures [7]: Kd increased with temperature for all four molecules; the change was greatest for D279, and smallest for D274
Kd [8]: 7.9 mM
